Assay results from patent publication US20240010679A1, “ANTIN[…] AND USES THEREOF” (THE UNIVERSITY OF BRITISH COLUMBIA, priority 2020, published 2024).
≈ marks a conversion by molar mass, not a printed value. Where “and” joins values, the source holds several entries; their conditions need not be identical. Equal values may be shown once. Entries after “also recorded” stand apart in the source; their conditions may differ. Read-outs that look alike come from different tables or passages of the source.

How the values were obtained:
Plasma stability assay = type: in vitro ADME, mouse; settings: for remaining at 1 h, 0.315 mmol/L: mouse plasma, 37° C., read-out: Intact peptide after 1 h in plasma
Method: (§1) Peptides (1.5 g/L) dissolved in saline/TWEEN 80/DMSO (90:5:5, v/v) were mixed with mouse plasma or human cerebrospinal fluid, respectively, to a final concentration of 0.315 mmol/L and incubated in a thermomixer (37° C., 750 rpm) Aliquots (45 μL) were mixed with aqueous acetonitrile (90%, v/v, 300 μL) containing formic acid (FA, 0.1%, v/v) and incubated on ice (30 min). After two centrifugation steps (12,000×g, 5 min), the supernatant (300 μL) was diluted in water (900 μL), dried by lyophilization, reconstituted in aqueous acetonitrile (4.5%, v/v) containing FA (0.1%, v/v), stored at −20° C., and analyzed with reverse-phase chromatography (RPC) on a C8-column (1 mm×150 mm) with a linear aqueous acetonitrile gradient typically from 5 to 95% eluent B in 15 min (eluent A: 0.1% (v/v) aqueous FA; eluent B: 90% aqueous acetonitrile containing 0.1% (v/v) FA. The RPC was coupled on-line to a UV detector measuring the absorbance at 214 nm and a mass spectrometer (MS) for peak identification. Peptide quantities were estimated using peak areas of the UV signal relative to the initial peak areas (t=0).

human DOR = human DOR (Homo sapiens, UniProt P41143); settings: relative scintillation compared to Leu-ENK at 6 nmol/L, [3H]DADLE displacement, mean of duplicates
human DOR, sequence (P41143 whole entry): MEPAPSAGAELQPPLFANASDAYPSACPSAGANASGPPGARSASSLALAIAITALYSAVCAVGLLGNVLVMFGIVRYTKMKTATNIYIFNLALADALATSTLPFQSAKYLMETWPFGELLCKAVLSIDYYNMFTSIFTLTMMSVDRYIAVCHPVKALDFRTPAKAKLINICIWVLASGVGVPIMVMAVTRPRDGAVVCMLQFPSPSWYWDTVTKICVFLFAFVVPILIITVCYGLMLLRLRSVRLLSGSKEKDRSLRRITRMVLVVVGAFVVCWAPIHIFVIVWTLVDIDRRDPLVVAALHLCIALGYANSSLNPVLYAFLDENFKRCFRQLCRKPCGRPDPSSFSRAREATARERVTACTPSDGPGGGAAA
Method: Binding studies were performed by Eurofins Scientific (Cereb, France). Briefly, COS-1 cells transfected with plasmids encoding human DOR (Gene ID: 4985) were grown in Dulbecco's modified Eagle's medium with 10% fetal calf serum and scraped from plates. Membranes were prepared using a Dounce homogenizer and stored at −80° C. until used. Membranes (40 μg protein/tube) were suspended in Tris-HCl, pH 7.4, for 2 h at 25° C., rapidly filtered on 0.1% polyethylenimine-pretreated GF/B filters and washed with the same cold Tris buffer (3×) using a Brandel cell harvester. […] Nonspecific binding was determined in the presence of naltrexone (10 μmol/L).

[1] = Plasma and brain concentrations after injection (UPLC); type: in vivo; settings: female, CD-1, mouse; for tissue level at time at 2 h: 2 h after s.c. injection; for half-life: 50 mg/kg, read-out: elimination half-life
Method: Blood collection from mice was performed by saphenous vein punctuation (volume withdrawn <7 mL/kg) followed by a cardiac puncture later, allowing for 2 sampling time points per animal with a minimum sampling interval of 50 min. Cardiac puncture was an experimental endpoint after which animals were euthanized using isoflurane followed by cervical dislocation. Blood samples were collected in EDTA coated collection tubes and chilled on ice immediately after collection. Blood plasma was separated from whole blood by centrifugation at 2.000 g for 7 min and carefully removed from the cell pellet. Blood plasma samples were immediately frozen on dry ice and stored at −80 C until further analysis.
Samples for liquid chromatography-mass spectrometry analysis were prepared by acetonitrile protein precipitation. Therefore, 50 μL of plasma was combined with 300 μL ice cold 90% acetonitrile containing 0.1% formic acid, briefly vortexed and put on ice for 30 min. After that samples were centrifuged at 4 C for 5 min (>12 k rpm) and supernatant (325 μL) transferred in a new tube. The previous centrifugation step was repeated and a final volume of 305 μL of the supernatant transferred into a new 1.5 mL tube. Water (800 μL) was added to samples after which they were frozen and lyophilized. The dried samples were resolubilized in 50 μL 4.5% acetonitrile, 0.1% formic acid in water, vortexed (1 min), sonicated (5 min), vortexed (1 min) and centrifuged for 5 min (>12 k rpm). Samples were measured in an ACQUITY UPLC H-Class chromatography system (Waters, Milford, MA) and a sample volume of 10 μL was injected onto the reverse phase column.
An ACQUITY UPLC H-Class chromatography system (Waters, Milford, MA) coupled on-line to a photodiode array detector (absorbance recorded at 214 nm, Waters) and to the electrospray ionization source on a mass spectrometer (QDa detector, Waters) operated in the positive ion mode was used. Separation relied on a BEH-C18 column (inner diameter: 1.1 mm; length: 50 mm; particle size: 1.7 μm, Waters) at a flow rate of 0.1 mL/min using a linear aqueous acetonitrile gradient in the presence of FA (0.1%, v/v).
Ionization was carried out at a source temperature of 450° C. using a cone voltage of 10 V and a capillary voltage of 1.5 kV. Mass spectra were typically acquired for an m/z range from 50 to 1250 at a sampling rate of 2 points per second. Quantities of the peptide were determined based on a calibration curve of the analyte in mouse plasma and the peak areas of the UV signal at 214 nm as well as mass spectrometry by detecting the singly charged molecular ions.

female CD1 mice [2] = test: Dependence test (naloxone-induced jumps); settings: twice daily s.c., KK-103 13 mg/kg, morphine 10 mg/kg; naloxone 4 mg/kg i.p., first 10 min
female CD-1 mice [3] = test: Open field test; settings: 15 mg/kg s.c.
Source text: (§2) Mice were allowed an acclimatization period of at least one week in the animal facility before experiments.

CSF stability assay = type: in vitro ADME, human; settings: 5 h of incubation
Method: as §1

[4] = Stability in the presence of human liver microsomes; type: in vitro ADME; settings: after 1 h, read-out: drug degradation in the presence of human liver microsomes
female CD1 mice [5] = test: Toxicity, highest deliverable single dose; type: in vivo, mouse; settings: single s.c. dose
Method: Animals were monitored and evaluated every 30 min. After 3 h, the time of maximal antinociceptive effect, animals were euthanized.

[6] = tested on: human liver microsome enzymes; test: Inhibition of human liver microsome enzymes; type: in vitro ADME
[7] = Solubility in injection vehicle; type: physicochemical; settings: normal saline/TWEEN 80 (9/1, v/v) injection vehicle
female CD-1 mice [8] = test: Respiratory rate assay; settings: s.c.; for breathing depression: KK-103 13 mg/kg, morphine 10 mg/kg, FIG. 10C
Method: The respiratory rate was assessed in awake mice lightly restrained in a well-ventilated 50 mL falcon tube with a darkened tip. Prior to the drug treatment, each animal was habituated in the tube for 30 min. The falcon tube was secured onto a stand facing lengthwise to a video camera. […] Animals were recorded at selected time points for 10 min to measure the respiration rate.

female CD1 mice [9] = settings: mouse, in vivo; cited from earlier work
female CD-1 mice [10] = test: Formalin foot assay; type: in vivo, mouse; settings: s.c.
Method: as §2
On the day of the experiment, mice were acclimatized to the experimental setup by putting them in darkened, non-transparent plexiglas cylinders (height, 20 cm; diameter, 9 cm) placed on a glass plane for 2 h. […] After successful injection, mice were immediately placed into cylinders and their behavior was monitored for 1 h. […] The accumulated licking and biting time of each animal was determined and recorded in 5 min bins. The total response time was plotted as early phase 1 from 0 to 5 min, and late phase 2 from 20 to 40 min after formalin injection.

COC(=O)[C@H](CC(C)C)NC(=O)[C@H](Cc1ccccc1)NC(=O)CNC(=O)CNC(=O)[C@H](Cc1ccc(O)cc1)NC(C)=O [KK-14]
remaining at 1 h, 0.315 mmol/L (Plasma stability assay): 82 ± 3% | Relative Binding to DOR (human DOR): 38%

COC(=O)[C@H](CC(C)C)NC(=O)[C@H](Cc1ccccc1)NC(=O)CNC(=O)CNC(=O)[C@H](Cc1ccc(O)cc1)NC(=O)Cc1ccccc1 [KK-81]
remaining at 1 h, 0.315 mmol/L (Plasma stability assay): 88 ± 11% | Relative Binding to DOR (human DOR): 41%

CCCCCC(=O)N[C@@H](Cc1ccc(O)cc1)C(=O)NCC(=O)NCC(=O)N[C@@H](Cc1ccccc1)C(=O)N[C@@H](CC(C)C)C(=O)OC [KK-93]
remaining at 1 h, 0.315 mmol/L (Plasma stability assay): 85 ± 11% | Relative Binding to DOR (human DOR): 33%

COC(=O)[C@H](CC(C)C)NC(=O)[C@H](Cc1ccccc1)NC(=O)CNC(=O)CNC(=O)[C@H](Cc1ccc(O)cc1)NC(=O)C(C)(C)C [KK-102]
conversion in mouse plasma (deesterification of methyl ester) (Plasma stability assay): converting to KK-103; also recorded: rapidly deesterifies to KK-103 | remaining at 1 h, 0.315 mmol/L (Plasma stability assay): 93 ± 1% | Relative Binding to DOR (human DOR; listed as KK-102/ KK-103): 68%

CC(C)C[C@H](NC(=O)[C@H](Cc1ccccc1)NC(=O)CNC(=O)CNC(=O)[C@H](Cc1ccc(O)cc1)NC(=O)C(C)(C)C)C(=O)O [KK-103]
tissue level at time at 2 h ([1]; brain, sc, read-out: concentration in brain): 200 ng/g | half-life ([1]; plasma, iv): 4.8 min | half-life ([1]; plasma, sc): 8.9 min | tissue level at time at 2 h ([1]; plasma, sc, read-out: concentration in plasma): 170000 ng/g | physical dependence: withdrawal jumps after naloxone (female CD1 mice [2]): not a single jump was observed | effect on locomotor activity (female CD-1 mice [3]): without effecting the locomotor activity | stability in cerebrospinal fluid (CSF stability assay): almost no degradation | metabolised at 1 h [4]: < 10% | toxicity at the highest deliverable dose (female CD1 mice [5]): no toxicity | time stable in mouse plasma (Plasma stability assay): at least 5 h | half-life in mouse plasma (Plasma stability assay; extrapolated): 36 h | remaining at 1 h, 0.315 mmol/L (Plasma stability assay): 93% | half-life at 0.315 mmol/L (Plasma stability assay; mouse, plasma, extrapolated): 37 h | Relative Binding to DOR (human DOR): 65% and ~70% | inhibition of human liver microsome enzymes [6]: did not inhibit | solubility [7]: 5000 µg/mL (≈ 7.82 mM) | respiration rate versus vehicle (female CD-1 mice [8]; 13 mg/kg, any time point between 30 and 240 min): comparable to that of mice treated with vehicle | breathing depression (female CD-1 mice [8]): did not induce breathing depression

CCCCCCCC(=O)N[C@@H](Cc1ccc(O)cc1)C(=O)NCC(=O)NCC(=O)N[C@@H](Cc1ccccc1)C(=O)N[C@@H](CC(C)C)C(=O)OC [KK-105]
remaining at 1 h, 0.315 mmol/L (Plasma stability assay): 80 ± 12% | Relative Binding to DOR (human DOR): 59%

C=CCCC(=O)N[C@@H](Cc1ccc(O)cc1)C(=O)NCC(=O)NCC(=O)N[C@@H](Cc1ccccc1)C(=O)N[C@@H](CC(C)C)C(=O)OC [KK-108]
remaining at 1 h, 0.315 mmol/L (Plasma stability assay): 73 ± 7% | Relative Binding to DOR (human DOR): 34%

COC(=O)[C@H](CC(C)C)NC(=O)[C@H](Cc1ccccc1)NC(=O)CNC(=O)CNC(=O)[C@H](Cc1ccc(O)cc1)NC(=O)C1CCCCC1 [KK-112]
remaining at 1 h, 0.315 mmol/L (Plasma stability assay): 62 ± 7% | Relative Binding to DOR (human DOR): 13%

CC(C)C[C@H](NC(=O)[C@H](Cc1ccccc1)NC(=O)CNC(=O)CNC(=O)[C@@H](N)Cc1ccc(O)cc1)C(=O)O [Leu-ENK, YGGFL, reference compound]
remaining at 1 h, 0.315 mmol/L (Plasma stability assay): 23 ± 3%

CN1CC[C@]23c4c5ccc(O)c4O[C@H]2[C@@H](O)C=C[C@H]3[C@H]1C5 [morphine]
physical dependence: withdrawal jumps after naloxone (female CD1 mice [2]): significant withdrawal syndromes | dose up to which safe to use (female CD1 mice [9]): up to 60 mg/kg | nociceptive response in phase 2, in words (female CD-1 mice [10]; 10 mg/kg, phase 2 (20-40 min)): completely diminished the nociceptive response | reduction of paw licking and biting time, phase 1 (0-5 min), compared to the control (female CD-1 mice [10]; morphine 10 mg/kg, KK-103 13 mg/kg): 30% | decrease of respiratory rate compared with vehicle control (female CD-1 mice [8]; 10 mg/kg, 30 min post injection): 56% | breathing depression (female CD-1 mice [8]): significant reduction of breathing rate
